These results are taken from publication PMC12583827, “Harnessing microbial-derived metabolites in the urinary tract to prevent infection induced catheter encrustation” (Nature Communications, 2025).

Counter-ions that a name gives are not always drawn. Where a SMILES comes first, the peptide text is derived from it.

T2 sequence (P17088 whole entry): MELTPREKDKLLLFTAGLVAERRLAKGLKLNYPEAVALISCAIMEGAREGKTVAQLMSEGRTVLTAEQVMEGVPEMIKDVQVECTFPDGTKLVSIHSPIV
T2 sequence (P17086 whole entry): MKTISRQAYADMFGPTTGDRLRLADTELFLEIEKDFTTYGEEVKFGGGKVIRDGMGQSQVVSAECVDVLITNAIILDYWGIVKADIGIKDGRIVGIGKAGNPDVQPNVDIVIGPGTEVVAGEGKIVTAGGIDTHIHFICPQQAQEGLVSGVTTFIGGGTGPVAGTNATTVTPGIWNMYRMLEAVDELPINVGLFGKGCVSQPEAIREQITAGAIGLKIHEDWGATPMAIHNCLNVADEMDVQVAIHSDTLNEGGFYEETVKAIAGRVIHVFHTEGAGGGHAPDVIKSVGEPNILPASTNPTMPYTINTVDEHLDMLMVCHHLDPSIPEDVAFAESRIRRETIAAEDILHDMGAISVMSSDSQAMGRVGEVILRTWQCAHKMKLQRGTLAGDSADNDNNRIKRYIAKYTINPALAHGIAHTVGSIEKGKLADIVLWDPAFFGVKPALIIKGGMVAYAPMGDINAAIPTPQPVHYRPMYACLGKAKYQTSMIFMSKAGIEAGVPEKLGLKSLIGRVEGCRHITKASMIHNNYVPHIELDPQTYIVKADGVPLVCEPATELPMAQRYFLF
T2 sequence (P17087 whole entry, further chain): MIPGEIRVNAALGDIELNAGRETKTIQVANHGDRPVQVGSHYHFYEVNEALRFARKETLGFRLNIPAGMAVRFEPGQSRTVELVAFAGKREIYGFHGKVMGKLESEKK

The target in the first experiment is T1, P. mirabilis urease (Proteus mirabilis, UniProt P17086).
T1 construct: it utilizes whole bacterial cells, rather than isolated enzyme preparations; endogenous in cells; host or cells: Proteus mirabilis HI4320, live whole cells
T1 sequence (P17086 whole entry): as the sequence (P17086 whole entry) above
T1 sequence (P17088 whole entry, further chain): as the sequence (P17088 whole entry) above
T1 sequence (P17087 whole entry, further chain): as the sequence (P17087 whole entry, further chain) above
Format: cell-based. The following applies: biosynthetic pathway/functional group screen; highest concentration tested 5mM.
With `O=C(O)C(=O)Cc1cnc[nH]1` [Imidazole pyruvate, Imidazole pyruvic acid hydrobromide hydrate], the Dampens urease activity entry is “No”.

The experiment is the same for the next values; noted with them: biosynthetic pathway/functional group screen; highest concentration tested 20mM.
Regarding `N[C@@H](Cc1c[nH]cn1)C(=O)O` [L-Histidine], the Dampens urease activity result is given as “No”.
Regarding `NCC(=O)O` [Glycine], the Dampens urease activity entry was “No”.
Take `O=C(O)C(O)Cc1ccccc1` (racemic) [Phenyllactate, (+/-)-3-Phenyllactic acid]: the Dampens urease activity result is on record as “No”.
With `C[C@H](O)C(=O)O` [L-Lactic acid, L-(+)-Lactic acid], the Dampens urease activity result is on record as “No”.
In the case of `CC(=O)O` [Acetic acid, Acetic Acid, Glacial], the Dampens urease activity entry was “No”.

Staying with this experiment, now noted: highest concentration tested 400uM.
On to `O=c1[nH]c(=O)c2nc[nH]c2[nH]1` [xanthine, Xanthine], for which the Urease dampening activity entry is listed as “No”.

The same experiment, now with this note: highest concentration tested 2.5mM.
For `N[C@@H](Cc1ccc(O)cc1)C(=O)O` [tyrosine, L-Tyrosine disodium salt dihydrate], the Urease dampening activity entry is “No”.

The experiment is the same for the next values; noted with them: highest concentration tested 10mM in 20%DMSO.
On to `O=C(O)C(=O)c1c[nH]c2ccccc12` [3-indoleglyoxylic acid], for which the Urease dampening activity result is “No”.
Still for that read-out and setting: the same measure for `O=Cc1c[nH]c2ccccc12` [3-formylindole, Indole-3-carboxyaldehyde]: “No”.

The same experiment, now with this note: highest concentration tested 15mM in 10% ethanol.
For the molecule `O=C(O)C(=O)Cc1ccc(O)cc1` [4-hydroxyphenylpyruvate, 4-Hydroxyphenylpyruvic acid], the Urease dampening activity entry is “No”.

The same experiment, now with this note: potassium phosphate buffer, dose response.
In the case of `CC(C)C[C@H](N)C(=O)NCC(=O)O` [leucylglycine, L-Leucylglycine hydrate] (H-Leu-Gly-OH), the “effect on P. mirabilis urease activity (whole cell)” value was “reproducibly decreased”.
On to `O=C(O)[C@@H](O)Cc1cnc[nH]1` [imidazole lactate], for which the “effect on P. mirabilis urease activity (whole cell)” value is “reproducibly decreased”.

The same experiment, now with this note: screen of candidate metabolites; highest concentration tested 20mM; * Trending but not statistically significant.
Take `O=C([O-])CCC(O)C(=O)[O-].[Na+].[Na+]` (racemic) [2-hydroxyglutarate, DL-α-Hydroxyglutaric acid disodium salt]: the Urease dampening activity entry is recorded as “No”.
With `Cl.Cl.NCCCCCN` [Cadaverine dihydrochloride], the Urease dampening activity result is recorded as “No”.
For `CC[C@H](C)[C@H](NC(C)=O)C(=O)O` [N-acetylisoleucine, N-acetyl-L-isoleucine], the Urease dampening activity entry is reported as “No”.
Turning to `NCCc1c[nH]cn1` [Histamine free base], the Urease dampening activity result is on record as “Yes*”.
Turning to `NC(N)=NCCCC[C@H](N)C(=O)O` [homoarginine, H-HoArg-OH], the Urease dampening activity result is “No”.
Turning to `CCC(C)C(=O)C(=O)[O-].[Na+]` (racemic) [3-methyl-2-oxovalerate, (±)-3-Methyl-2-oxovaleric acid sodium salt], the Urease dampening activity result was “No”.
Same read-out and setting: the same measure for `N=C(N)NCCC[C@H](N)C(=O)O` [L-Arginine]: “No”; for `CC(=O)NCCCCN.Cl` [N-acetylputrescine, N-Acetylputrescine Hydrochloride]: “No”.
In the case of `O=C([O-])[C@H](O)[C@@H](O)[C@H](O)[C@H](O)CO.[Na+]` [gluconate, Gluconic acid Sodium Salt], the Urease dampening activity entry is listed as “No”.
For `O=C1N[C@@H](Cc2ccc(O)cc2)C(=O)N2CCC[C@@H]12` [cyclo(pro-tyr), Cyclo(-Pro-Tyr)], the Urease dampening activity result is given as “No”.
For `Nc1ccn([C@@H]2O[C@H](CO)[C@@H](O)[C@H]2O)c(=O)n1` [cytidine, Cytidine], the Urease dampening activity result was “No”.
Consider `OC[C@H]1O[C@@](CO)(O[C@H]2O[C@H](CO)[C@@H](O)[C@H](O)[C@H]2O)[C@@H](O)[C@@H]1O` [sucrose, Sucrose], for which the Urease dampening activity entry is “No”.
With `CC(C)C[C@H](N)C(=O)NCC(=O)O` [leucylglycine, L-Leucylglycine hydrate] (H-Leu-Gly-OH), the Urease dampening activity entry is “Yes”.
Same read-out and setting: with `N[C@@H](COP(=O)(O)O)C(=O)O` [Ophospho-L-serine] the entry was “No”; with `O=C1NC(Cc2ccccc2)C(=O)N2CCCC12` (centres unmarked) [cyclo(phe-pro), Cyclo(Phe-Pro)], “No”.
Same read-out and setting: with `CC(=O)NCCCCCN` [N-(5-Aminopentyl)acetamide] the entry was “No”; with `N[C@@H](Cc1ccccc1)C(=O)O` [phenylalanine, L-phenylalanine], “No”.
Still for that read-out and setting: with `NCCc1ccccc1` [phenethylamine, 2-Phenylethylamine] the entry was “No”; with `NC(COP(=O)(O)O)C(=O)O` (racemic) [Ophospho-D,L-serine], “No”; with `Nc1ncnc2c1ncn2C1OC(COP(=O)(O)O)C(O)C1O` (centres unmarked) [adenosine 5'-monophosphate (AMP), AMP sodium salt hydrate], “No”.
Take `NCCCCCN` [cadaverine, Cadaverine]: the Urease dampening activity result is listed as “No”.
For the molecule `CC(C)CC(=O)C(=O)O` [4-methyl-2-oxopentanoate, 4-Methyl-2-oxovaleric acid], the Urease dampening activity result was “No”.
On the same count and under the same terms, with `NC(N)=NCCC[C@@H](N)C(=O)O` [D-Arginine] the entry was “No”; with `NCCCCN` [putrescine, Putrescine Dihydrochloride], “No”.
The same measure, in the same setting: with `Nc1ncnc2c1ncn2[C@@H]1O[C@@H]2COP(=O)(O)O[C@H]2[C@H]1O` [adenosine 3',5'-cyclic monophosphate (cAMP)] the entry was “No”.

The next experiment addresses T2, urease of P. mirabilis HI4320 cell free extracts (Proteus mirabilis, UniProt P17086).
T2 construct: 20ul of cell-free extract were distributed into a 96-well plate in place of the whole cell bacterial suspensions; endogenous in cells; host or cells: Proteus mirabilis HI4320, urea-induced; freeze-thaw and sonication lysate, clarified supernatant
It is filed as biochemical.
Conditions: not given
Here is the method:
To measure urease activity of the cell free extracts of P. mirabilis, P. mirabilis was cultured for ~18 h in LB broth and then sub cultured until it reached mid-log growth phase (OD600 0.2-0.5). Cultures were spun down to pellet at 10,000 rcf for 10 minutes and resuspended in saline to a final OD600 of 1.0. Cultures were then diluted 1:10 in potassium phosphate buffer pH7 supplemented with 500 mM urea and incubated at 37 °C with shaking for 1 h to induce its urease enzyme production. The isogenic urease mutant Pm ureF::kan (Supplementary Data 1) served as negative control. Cultures then were spun down to pellet at 10,000 rcf for 10 minutes and resuspended in 2 mL saline. Cultures were subjected to four cycles of freezing in liquid nitrogen and thawing in a 37 °C water bath. Cultures were then probe sonicated (on ice) at 25% amplitude for 10 sec. Sonicated cultures were centrifuged at 18,900 Xg for 5 min and supernatants were transferred to a clean tube and stored on ice. To measure urease activity of cell free extracts, the previously described assay was modified such that 20ul of cell-free extract were distributed into a 96-well plate in place of the whole cell bacterial suspensions. Acetohydroxamic acid (AHA), was used as a positive control. Percent of maximum urease activity was calculated using Area Under the Curve (AUC) relative to untreated cell free extracts of P. mirabilis.
With `CC(C)C[C@H](N)C(=O)NCC(=O)O` [leucylglycine, L-Leucylglycine hydrate] (H-Leu-Gly-OH), the “urease activity of cell free P. mirabilis extracts” value was “at least partially inhibiting”.

The target in the next experiment is T3, Jack Bean Urease (JBU) (Canavalia ensiformis, UniProt P07374).
T3 construct: purchased Sigma-Aldrich
T3 sequence (P07374 whole entry, looked up): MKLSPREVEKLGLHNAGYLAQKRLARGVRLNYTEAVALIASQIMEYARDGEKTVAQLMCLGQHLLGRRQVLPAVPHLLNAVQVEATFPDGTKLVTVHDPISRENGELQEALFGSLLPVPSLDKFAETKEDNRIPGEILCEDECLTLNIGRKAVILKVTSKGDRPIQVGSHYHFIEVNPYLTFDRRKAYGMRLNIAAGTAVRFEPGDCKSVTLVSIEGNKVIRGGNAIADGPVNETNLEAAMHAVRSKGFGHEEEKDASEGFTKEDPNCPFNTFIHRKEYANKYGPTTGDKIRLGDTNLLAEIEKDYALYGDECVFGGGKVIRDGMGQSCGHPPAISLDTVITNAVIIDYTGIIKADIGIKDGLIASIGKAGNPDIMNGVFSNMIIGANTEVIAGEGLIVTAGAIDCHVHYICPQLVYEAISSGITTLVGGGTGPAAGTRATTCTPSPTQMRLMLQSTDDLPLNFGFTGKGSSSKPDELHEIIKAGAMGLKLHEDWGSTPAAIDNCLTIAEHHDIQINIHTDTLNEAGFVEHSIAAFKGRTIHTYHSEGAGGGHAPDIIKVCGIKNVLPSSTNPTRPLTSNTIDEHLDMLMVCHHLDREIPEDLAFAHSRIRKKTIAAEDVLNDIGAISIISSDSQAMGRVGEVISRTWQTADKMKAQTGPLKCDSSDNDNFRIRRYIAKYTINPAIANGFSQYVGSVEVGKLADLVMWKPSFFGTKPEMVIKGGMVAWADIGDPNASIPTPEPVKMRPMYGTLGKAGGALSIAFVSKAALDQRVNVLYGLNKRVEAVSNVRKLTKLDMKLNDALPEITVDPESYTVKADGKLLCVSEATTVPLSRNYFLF
Format: biochemical. The conditions noted are these: 0.1 U JBU, 500 mM urea. As to the method:
To measure Jack Bean urease activity, the previously described assay was modified such that 0.1 U (1U liberates 1 µmol of ammonia from urea per minute) of JBU (Sigma-Aldrich urease from Canavalia ensiformis) were distributed into a 96-well plate in place of the bacterial suspensions. Acetohydroxamic acid (AHA), was used as a positive control and a vehicle control was used as a negative control. Percent of maximum urease activity was calculated using Area Under the Curve (AUC) relative to untreated bacteria of interest or untreated JBU. Urease activity measurement in MRSA was adapted from a recently published semi quantitative assay (See Supplementary materials for details)[48].
414 Supplementary Figure 13. Microbial metabolites dampen activity of purified Jack Bean
415 Urease (JBU). 0.1 U of JBU (1U liberates 1 µmol of ammonia from urea per minute) was
416 incubated at 37 °C with shaking in urease-dampening metabolites, 500mM urea, and phenol red.
417 A urea analogue, AHA, served as the positive control for inhibition of JBU. Absorbance
418 (OD562) was measured every 60 seconds for 90 minutes, and activity is expressed as percent of
419 maximum activity (% Max Activity) relative to untreated JBU. Graphs show mean±SD for 3
420 independent experiments with 3 technical replicates each. Data were analyzed by two tailed one
421 sample t-test to a hypothetical value of 100% activity. ***P<0.001, **P<0.002, *P<0.033.
(1 picture or pasted object on this page, not shown here)
Take `CC(C)C[C@H](N)C(=O)NCC(=O)O` [leucylglycine, L-Leucylglycine hydrate] (H-Leu-Gly-OH): the JBU activity result is “inhibited”.

The target of another experiment is T4, urease of P. mirabilis cell free extracts (Proteus mirabilis, UniProt P17086).
T4 construct: 20ul of cell-free extract were distributed into a 96-well plate in place of the whole cell bacterial suspensions; endogenous in cells; host or cells: Proteus mirabilis HI4320, urea-induced; freeze-thaw and sonication lysate, clarified supernatant
T4 sequence (P17086 whole entry): as the sequence (P17086 whole entry) above
T4 sequence (P17088 whole entry, further chain): as the sequence (P17088 whole entry) above
T4 sequence (P17087 whole entry, further chain): as the sequence (P17087 whole entry, further chain) above
Format: biochemical.
Conditions: not given
As to the method:
For the kinetic analysis of the urease reaction in the presence of urease dampening metabolites, urease activity assays were repeated with the P. mirabilis cell free extracts. Six different inhibitor concentrations that gave linear rates of reaction over a period of 120 min were tested for their effects on urease activity in the presence of urea concentrations ranging from 0 to 500 mM. Simple linear regression was performed on the absorbance (OD562) over 120 minutes for each condition and plotted as Initial velocity (slope) vs urea concentration. These initial hyperbolic plots were converted to double-reciprocal Lineweaver-Burke plots, and the pattern of inhibition inferred from the point of intersection of the lines. Finally, the Ki for a particular compound was determined by plotting the Km/Vmax ratio (the slope of the Lineweaver-Burke plots) of each line as a function of the inhibitor concentration as described by ref. [49]. The X-intercept corresponded to –Ki.
For the molecule `CC(C)C[C@H](N)C(=O)NCC(=O)O` [leucylglycine, L-Leucylglycine hydrate] (H-Leu-Gly-OH), the “change of estimated Km on addition of metabolite” value is “increase” and the “change of estimated Vmax on addition of metabolite” value is given as “decrease”.

Still in this experiment, the particulars now being: Michaelis-Menten parameters, Lineweaver-Burke plot.
As for `CC(C)C[C@H](N)C(=O)NCC(=O)O` [leucylglycine, L-Leucylglycine hydrate] (H-Leu-Gly-OH), the “type of urease inhibition” value was “mixed inhibitors”.

The target in a further experiment is T1, P. mirabilis urease. It is filed as cell-based.
Conditions: not given
As to the method: To assess the synergistic effects of dampening metabolites when used in combination with each other, P. mirabilis urease activity was measured as described above. Between 4-6 different concentrations for each dampening metabolite were tested both alone and in combination (See Fig. 6a for example). […] To account for variability between experiments, all conditions tested were performed on a single 96-well plate with three technical replicates for each condition. To compare between biologic replicates, percent inhibition relative to untreated P. mirabilis was calculated for each condition using the average area under the curve over 120-180 minutes (so that the positive control activity curve saturated without any increase in the negative control curve).
Statistical analysis was conducted using a one sample T test of the combination index compared to a hypothetical value of 1 (additive effect). […] Therefore, combination indexes were calculated using a desired effect size less than 40% were indicated with an * in Fig. 6b and in Supplementary Data 5.
In the case of `CC(C)C[C@H](N)C(=O)NCC(=O)O` [leucylglycine, L-Leucylglycine hydrate] (H-Leu-Gly-OH), the “concentrations required to achieve a significant combination index” value is on record as over 50 mM.
